# Assay: Cytotoxicity against human MDA-MB-231 cells assessed as cell viability at 25 to 100 uM after 72 hrs by MTT assay relative to control
# Type: cell-based
# Details: read-out: Activity
row,SMILES,"viability at 72 h, up to 100 µM [%]"
1,NC(=S)Nc1nn2c(=O)[nH]c(=S)[nH]c2c1Cc1ccc(Oc2ccccc2)cc1,80
2,NC(=S)Nc1nn2c(=O)[nH]c(=S)[nH]c2c1Cc1ccc(C(F)(F)F)cc1,80
3,O=c1[nH]c(=O)c2cc[nH]c2[nH]1 [7-DEAZAXANTHINE],80
4,NC(=S)Nc1nn2c(=O)[nH]c(=S)[nH]c2c1Cc1ccc(-c2ccccc2)cc1,80
5,O=c1[nH]c(=S)[nH]c2cc(-c3ccc(Cl)c(Cl)c3)nn12,80
6,NC(=S)Nc1nn2c(=O)[nH]c(=S)[nH]c2c1Cc1cccc2ccccc12,80

# From ChEMBL document CHEMBL3232704, “Discovery of mixed type thymidine phosphorylase inhibitors endowed with antiangiogenic properties: synthesis, pharmacological evaluation and molecular docking study of 2-thioxo-pyrazolo[1,5-a][1,3,5]triazin-4-ones. Part II” (Eur J Med Chem, 2014)
